Measurements reported in the supplement of paper PMC10307832.

Tests used:
Assay in all cases: relative viability (nuclei count vs DMSO), 5 days (fraction); higher = more cells survive
Adavosertib + Crizotinib = compound: C=CCn1c(=O)c2cnc(Nc3ccc(N4CCN(C)CC4)cc3)nc2n1-c1cccc(C(C)(C)O)n1 [Adavosertib] + C[C@@H](Oc1cc(-c2cnn(C3CCNCC3)c2)cnc1N)c1c(Cl)ccc(F)c1Cl [Crizotinib] (partner 1 µM)
Summary of the method: (§1)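 A single step with final 0.05% Triton X-100, 1% formaldehyde and 1 ug/ml Hoechst fixed the cells and stained nuclei 5 days after treatment. Lung cancer cell lines in 1536-well plates had been treated by pin tool the day after seeding with one drug alone or a fixed anchor-drug dose plus five library-drug doses (not always all listed) in √10 steps, and nuclei were counted on 4× images. Relative viability is the ratio of nuclei in treated wells to nuclei in vehicle wells, taken as the median of duplicate plates.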

Adavosertib + Linsitinib = compound: C=CCn1c(=O)c2cnc(Nc3ccc(N4CCN(C)CC4)cc3)nc2n1-c1cccc(C(C)(C)O)n1 [Adavosertib] + C[C@]1(O)C[C@@H](c2nc(-c3ccc4ccc(-c5ccccc5)nc4c3)c3c(N)nccn32)C1 [Linsitinib] (partner 1 µM)
Summary of the method: as §1

Nelarabine + Decitabine = compound: COc1nc(N)nc2c1ncn2[C@@H]1O[C@H](CO)[C@@H](O)[C@@H]1O [Nelarabine] + Nc1ncn([C@H]2C[C@H](O)[C@@H](CO)O2)c(=O)n1 [Decitabine] (partner 2 µM)
Summary of the method: as §1

Nelarabine + Palbociclib = compound: COc1nc(N)nc2c1ncn2[C@@H]1O[C@H](CO)[C@@H](O)[C@@H]1O [Nelarabine] + CC(=O)c1c(C)c2cnc(Nc3ccc(N4CCNCC4)cn3)nc2n(C2CCCC2)c1=O [Palbociclib] (partner 0.5 µM)
Summary of the method: as §1

| Cell Line | relative viability (Adavosertib + Crizotinib; first compound 0.01 µM) | relative viability (Adavosertib + Crizotinib; first compound 0.03162 µM) | relative viability (Adavosertib + Crizotinib; first compound 0.1 µM) | relative viability (Adavosertib + Crizotinib; first compound 0.3162 µM) | relative viability (Adavosertib + Linsitinib; first compound 0.01 µM) | relative viability (Adavosertib + Linsitinib; first compound 0.03162 µM) | relative viability (Adavosertib + Linsitinib; first compound 0.1 µM) | relative viability (Adavosertib + Linsitinib; first compound 0.3162 µM) | relative viability (Nelarabine + Decitabine; first compound 0.01 µM) | relative viability (Nelarabine + Decitabine; first compound 0.03162 µM) | relative viability (Nelarabine + Decitabine; first compound 0.1 µM) | relative viability (Nelarabine + Decitabine; first compound 0.3162 µM) | relative viability (Nelarabine + Decitabine; first compound 1 µM) | relative viability (Nelarabine + Palbociclib; first compound 0.01 µM) | relative viability (Nelarabine + Palbociclib; first compound 0.03162 µM) | relative viability (Nelarabine + Palbociclib; first compound 0.1 µM) | relative viability (Nelarabine + Palbociclib; first compound 0.3162 µM) | relative viability (Nelarabine + Palbociclib; first compound 1 µM) |
| --- | --- | --- | --- | --- | --- | --- | --- | --- | --- | --- | --- | --- | --- | --- | --- | --- | --- | --- |
| HOP-62 | 0.986 | 0.905 | 1.04 | 0.955 | 0.981 | 1.02 | 1.09 | 1.03 | 0.214 | 0.194 | 0.23 | 0.182 | 0.229 | 0.567 | 0.49 | 0.496 | 0.419 | 0.485 |
| SK-MES-1 | 0.92 | 1.02 | 0.983 | 0.791 | 1.03 | 1.02 | 1.1 | 0.835 | 0.359 | 0.347 | 0.375 | 0.422 | 0.35 | 0.3 | 0.327 | 0.305 | 0.316 | 0.354 |
| NCI-H1755 | 0.885 | 0.882 | 0.911 | 0.739 | 0.997 | 0.956 | 0.992 | 0.997 | 0.706 | 0.811 | 0.734 | 0.639 | 0.737 | 0.462 | 0.464 | 0.462 | 0.463 | 0.453 |
| NCI-H2126 | 1.05 | 1.01 | 1.08 | 1.07 | 0.695 | 0.712 | 0.703 | 0.722 | 0.658 | 0.616 | 0.563 | 0.594 | 0.559 | 0.347 | 0.352 | 0.326 | 0.353 | 0.403 |
| NCI-H1944 | 1.14 | 1.11 | 1.17 | 1.13 | 1.17 | 1.13 | 1.23 | 1 | 0.423 | 0.449 | 0.457 | 0.416 | 0.427 | 0.367 | 0.267 | 0.343 | 0.362 | 0.316 |
| ABC-1 | 1.16 | 1.19 | 1.05 | 1.31 | 1.03 | 0.849 | 0.647 | 0.682 | 1.25 | 1.21 | 1.09 | 1.05 | 0.972 | 0.624 | 0.553 | 0.762 | 0.625 | 0.692 |
